Species: Rattus norvegicus
Experiment: DrugMatrix - Regimen: Daily Repeat
Assay type: toxicity, organism-based, Sprague-Dawley
Set-up: regimen Daily Repeat, gender Male, age 6-8 weeks
Conditions: in vivo, po, route oral GAVAGE, vehicle 100 % WATER; for ABSOLUTE BASOPHIL / ABSOLUTE EOSINOPHIL / ABSOLUTE LYMPHOCYTE / ABSOLUTE MONOCYTE / ABSOLUTE SEGMENTED NEUTROPHIL / BASOPHIL / EOSINOPHIL / ERYTHROCYTE COUNT / HEMATOCRIT / HEMOGLOBIN / LEUKOCYTE COUNT / LYMPHOCYTE / MEAN CORPUSCULAR HEMOGLOBIN / MEAN CORPUSCULAR HEMOGLOBIN CONCENTRATION / MEAN CORPUSCULAR VOLUME / MONOCYTE / NEUTROPHIL / NUCLEATED RED BLOOD CELLS / PLATELET COUNT: tissue Blood; for ALANINE AMINOTRANSFERASE / ALBUMIN / ALKALINE PHOSPHATASE / ASPARTATE AMINOTRANSFERASE / BLOOD UREA NITROGEN / CARBON DIOXIDE / CHLORIDE / CHOLESTEROL / CREATINE PHOSPHOKINASE / CREATININE / GLUCOSE / LACTATE DEHYDROGENASE / LIPASE / PHOSPHORUS / POTASSIUM / SODIUM / TOTAL BILIRUBIN / TOTAL PROTEIN / URIC ACID: tissue Plasma
[1] = 20 mg/kg, 120 h, dose level Low, time 5 day
[2] = 160 mg/kg, 72 h, dose level High, time 3 day
[3] = 160 mg/kg, 120 h, dose level High, time 5 day

SMILES: CN(C)CCC=C1c2ccccc2CCc2ccccc21 [AMITRIPTYLINE]
- ABSOLUTE BASOPHIL [1]: 0 CELLS/uL
- ABSOLUTE EOSINOPHIL [1]: 0 CELLS/uL
- ABSOLUTE LYMPHOCYTE [1]: 11980.67 CELLS/uL
- ABSOLUTE MONOCYTE [1]: 40.67 CELLS/uL
- ABSOLUTE SEGMENTED NEUTROPHIL [1]: 1045.33 CELLS/uL
- BASOPHIL [1]: 0%
- EOSINOPHIL [1]: 0%
- ERYTHROCYTE COUNT [1]: 5.76 x10E6/uL
- HEMATOCRIT [1]: 35.93%
- HEMOGLOBIN [1]: 14.33 G/DL
- LEUKOCYTE COUNT [1]: 13.07 x10E3/uL
- LYMPHOCYTE [1]: 91.33%
- MEAN CORPUSCULAR HEMOGLOBIN [1]: 24.93 pg
- MEAN CORPUSCULAR HEMOGLOBIN CONCENTRATION [1]: 39.9 G/DL
- MEAN CORPUSCULAR VOLUME [1]: 62.43 fL
- MONOCYTE [1]: 0.33%
- NEUTROPHIL [1]: 8.33%
- NUCLEATED RED BLOOD CELLS [1]: 0.33 /100WBC
- PLATELET COUNT [1]: 1316.67 x10E3/uL
- ALANINE AMINOTRANSFERASE [1]: 43.67 u/L
- ALBUMIN [1]: 4 G/DL
- ALKALINE PHOSPHATASE [1]: 394 u/L
- ASPARTATE AMINOTRANSFERASE [1]: 89.67 u/L
- BLOOD UREA NITROGEN [1]: 15.33 mg/dL
- CARBON DIOXIDE [1]: 30 mmol/L
- CHLORIDE [1]: 100.33 MEQ/L
- CHOLESTEROL [1]: 66.67 mg/dL
- CREATINE PHOSPHOKINASE [1]: 486 u/L
- CREATININE [1]: 0.18 mg/dL
- GLUCOSE [1]: 145.33 mg/dL
- LACTATE DEHYDROGENASE [1]: 605.67 u/L
- LIPASE [1]: 11 u/L
- PHOSPHORUS [1]: 12.43 mg/dL
- POTASSIUM [1]: 6.68 MEQ/L
- SODIUM [1]: 141.6 MEQ/L
- TOTAL BILIRUBIN [1]: 0.2 mg/dL
- TOTAL PROTEIN [1]: 5.97 G/DL
- URIC ACID [1]: 1.87 mg/dL
- ABSOLUTE BASOPHIL [2]: 0 CELLS/uL
- ABSOLUTE EOSINOPHIL [2]: 85.33 CELLS/uL
- ABSOLUTE LYMPHOCYTE [2]: 16571 CELLS/uL
- ABSOLUTE MONOCYTE [2]: 212.67 CELLS/uL
- ABSOLUTE SEGMENTED NEUTROPHIL [2]: 697.67 CELLS/uL
- BASOPHIL [2]: 0%
- EOSINOPHIL [2]: 0.67%
- ERYTHROCYTE COUNT [2]: 5.93 x10E6/uL
- HEMATOCRIT [2]: 38.63%
- HEMOGLOBIN [2]: 15.33 G/DL
- LEUKOCYTE COUNT [2]: 17.57 x10E3/uL
- LYMPHOCYTE [2]: 94%
- MEAN CORPUSCULAR HEMOGLOBIN [2]: 25.83 pg
- MEAN CORPUSCULAR HEMOGLOBIN CONCENTRATION [2]: 39.7 G/DL
- MEAN CORPUSCULAR VOLUME [2]: 65.13 fL
- MONOCYTE [2]: 1%
- NEUTROPHIL [2]: 4.33%
- NUCLEATED RED BLOOD CELLS [2]: 0 /100WBC
- PLATELET COUNT [2]: 1403.33 x10E3/uL
- ALANINE AMINOTRANSFERASE [2]: 60 u/L
- ALBUMIN [2]: 4.1 G/DL
- ALKALINE PHOSPHATASE [2]: 422 u/L
- ASPARTATE AMINOTRANSFERASE [2]: 80.33 u/L
- BLOOD UREA NITROGEN [2]: 14 mg/dL
- CARBON DIOXIDE [2]: 34 mmol/L
- CHLORIDE [2]: 102 MEQ/L
- CHOLESTEROL [2]: 83 mg/dL
- CREATINE PHOSPHOKINASE [2]: 464 u/L
- CREATININE [2]: 0.15 mg/dL
- GLUCOSE [2]: 151.67 mg/dL
- LACTATE DEHYDROGENASE [2]: 162.67 u/L
- LIPASE [2]: 10.33 u/L
- PHOSPHORUS [2]: 11.3 mg/dL
- POTASSIUM [2]: 5.61 MEQ/L
- SODIUM [2]: 145.53 MEQ/L
- TOTAL BILIRUBIN [2]: 0.13 mg/dL
- TOTAL PROTEIN [2]: 5.93 G/DL
- URIC ACID [2]: 1.57 mg/dL
- ABSOLUTE BASOPHIL [3]: 0 CELLS/uL
- ABSOLUTE EOSINOPHIL [3]: 42.33 CELLS/uL
- ABSOLUTE LYMPHOCYTE [3]: 10052.67 CELLS/uL
- ABSOLUTE MONOCYTE [3]: 70 CELLS/uL
- ABSOLUTE SEGMENTED NEUTROPHIL [3]: 435 CELLS/uL
- BASOPHIL [3]: 0%
- EOSINOPHIL [3]: 0.33%
- ERYTHROCYTE COUNT [3]: 5.82 x10E6/uL
- HEMATOCRIT [3]: 36.27%
- HEMOGLOBIN [3]: 14.2 G/DL
- LEUKOCYTE COUNT [3]: 10.6 x10E3/uL
- LYMPHOCYTE [3]: 94.67%
- MEAN CORPUSCULAR HEMOGLOBIN [3]: 24.37 pg
- MEAN CORPUSCULAR HEMOGLOBIN CONCENTRATION [3]: 39.17 G/DL
- MEAN CORPUSCULAR VOLUME [3]: 62.27 fL
- MONOCYTE [3]: 0.67%
- NEUTROPHIL [3]: 4.33%
- NUCLEATED RED BLOOD CELLS [3]: 0.33 /100WBC
- PLATELET COUNT [3]: 1249.67 x10E3/uL
- ALANINE AMINOTRANSFERASE [3]: 49.67 u/L
- ALBUMIN [3]: 4 G/DL
- ALKALINE PHOSPHATASE [3]: 363.67 u/L
- ASPARTATE AMINOTRANSFERASE [3]: 96.67 u/L
- BLOOD UREA NITROGEN [3]: 14.67 mg/dL
- CARBON DIOXIDE [3]: 30.33 mmol/L
- CHLORIDE [3]: 100.67 MEQ/L
- CHOLESTEROL [3]: 72.67 mg/dL
- CREATINE PHOSPHOKINASE [3]: 1225 u/L
- CREATININE [3]: 0.16 mg/dL
- GLUCOSE [3]: 188 mg/dL
- LACTATE DEHYDROGENASE [3]: 246.67 u/L
- LIPASE [3]: 10.33 u/L
- PHOSPHORUS [3]: 12.93 mg/dL
- POTASSIUM [3]: 5.4 MEQ/L
- SODIUM [3]: 143.4 MEQ/L
- TOTAL BILIRUBIN [3]: 0.17 mg/dL
- TOTAL PROTEIN [3]: 6.23 G/DL
- URIC ACID [3]: 1.83 mg/dL

— ChEMBL document CHEMBL3885881, “DrugMatrix”
